Numbered stars: 1 amine (or outer) side, 2 acyl side, 3 side chain; on linkers, the order of the positions; unused ones are H or OH. Bridge positions count the residues as written; N and C are the ends. Square brackets hold non-standard residues; d marks the D form. Peptide text beside a SMILES is read from it. I, II: the chains in the order shown. Actinocin(9to1) = Cc1c2oc3c(C)ccc(C(=O)[*:1])c3nc-2c(C(=O)[*:2])c(N)c1=O; NMeV = CN[C@H](C(=O)O)C(C)C; Sar = CNCC(=O)O
These compounds were tested against T1, ATP-binding cassette sub-family C member 6 (Homo sapiens, UniProt O95255) (assay: TP_TRANSPORTER: uptake in membrane vesicle from MRP6-expressing CHO cells). Details: hamster.
T1 sequence (O95255 whole entry): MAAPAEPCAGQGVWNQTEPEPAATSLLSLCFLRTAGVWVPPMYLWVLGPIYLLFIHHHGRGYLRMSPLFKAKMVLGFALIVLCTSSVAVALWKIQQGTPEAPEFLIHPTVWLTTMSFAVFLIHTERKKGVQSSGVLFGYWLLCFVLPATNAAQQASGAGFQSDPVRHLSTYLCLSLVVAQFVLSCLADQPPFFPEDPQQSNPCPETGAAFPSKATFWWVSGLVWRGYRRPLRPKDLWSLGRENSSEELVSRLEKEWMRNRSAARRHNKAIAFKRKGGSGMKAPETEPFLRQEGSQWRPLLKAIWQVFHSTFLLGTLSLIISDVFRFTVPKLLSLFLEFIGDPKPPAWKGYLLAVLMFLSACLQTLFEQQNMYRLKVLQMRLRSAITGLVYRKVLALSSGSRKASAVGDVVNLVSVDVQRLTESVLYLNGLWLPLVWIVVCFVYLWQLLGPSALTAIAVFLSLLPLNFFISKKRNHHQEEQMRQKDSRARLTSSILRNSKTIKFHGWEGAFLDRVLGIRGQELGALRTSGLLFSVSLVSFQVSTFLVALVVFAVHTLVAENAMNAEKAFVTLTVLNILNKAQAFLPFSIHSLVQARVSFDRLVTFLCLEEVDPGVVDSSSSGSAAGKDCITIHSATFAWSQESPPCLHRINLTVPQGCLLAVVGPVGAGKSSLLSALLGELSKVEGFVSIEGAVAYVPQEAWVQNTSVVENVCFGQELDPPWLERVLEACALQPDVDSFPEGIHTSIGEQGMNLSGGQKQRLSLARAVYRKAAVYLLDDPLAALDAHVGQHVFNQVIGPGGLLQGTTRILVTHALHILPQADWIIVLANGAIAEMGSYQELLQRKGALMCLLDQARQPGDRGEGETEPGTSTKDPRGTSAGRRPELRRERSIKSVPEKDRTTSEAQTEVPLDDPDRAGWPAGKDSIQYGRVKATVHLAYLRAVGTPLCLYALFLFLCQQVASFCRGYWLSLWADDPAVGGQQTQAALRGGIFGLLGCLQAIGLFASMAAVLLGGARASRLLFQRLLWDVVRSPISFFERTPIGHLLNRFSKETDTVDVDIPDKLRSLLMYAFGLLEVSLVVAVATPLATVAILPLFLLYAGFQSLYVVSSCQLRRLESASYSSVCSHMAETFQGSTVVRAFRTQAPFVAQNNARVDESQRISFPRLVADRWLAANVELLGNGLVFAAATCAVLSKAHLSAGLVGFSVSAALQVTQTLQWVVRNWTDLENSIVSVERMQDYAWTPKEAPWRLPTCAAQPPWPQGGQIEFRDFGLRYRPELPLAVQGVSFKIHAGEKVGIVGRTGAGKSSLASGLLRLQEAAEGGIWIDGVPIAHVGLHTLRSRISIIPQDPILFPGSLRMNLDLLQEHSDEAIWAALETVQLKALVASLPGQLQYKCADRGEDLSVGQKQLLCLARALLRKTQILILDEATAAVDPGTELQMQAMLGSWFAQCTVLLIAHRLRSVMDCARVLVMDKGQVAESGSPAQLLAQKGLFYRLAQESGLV
Type: functional, cell membranes

Activity | Compound
substrate [+] | CC(C)C[C@@H]1NC(=O)[C@@H](C(C)C)NC(=O)[C@@H]2CCCN2C(=O)[C@@H](CC(=O)O)NC(=O)[C@@H](Cc2c[nH]c3ccccc23)NC1=O [BQ-123] (HELM PEPTIDE1{L.[dW].[dD].P.[dV]}$PEPTIDE1,PEPTIDE1,1:R1-5:R2$$$V2.0)
substrate [+] | CCCCC/C=C\C\C=C/C=C/C=C/[C@@H](SC[C@@H](NC(=O)CC[C@H](N)C(=O)O)C(=O)NCC(=O)O)[C@@H](O)CCCC(=O)O [LEUKOTRIEN C4]

Compound | Activity
N[C@@H](CCC(=O)N[C@H](CSc1ccc([N+](=O)[O-])cc1[N+](=O)[O-])C(=O)NCC(=O)O)C(=O)O | substrate [+]

Each compound was assayed against T1, ATP-binding cassette sub-family C member 6 (assay: TP_TRANSPORTER: drug resistance in MRP6-expressing CHO cells). Details: hamster.
Type: functional, cell-based

Compound | Activity
COc1cccc2c1C(=O)c1c(O)c3c(c(O)c1C2=O)C[C@@](O)(C(C)=O)C[C@@H]3O[C@H]1C[C@H](N)[C@H](O)[C@H](C)O1 [DAUNORUBICIN] | substrate []
Cc1c2oc3c(C)ccc(C(=O)N[C@@H]4C(=O)N[C@H](C(C)C)C(=O)N5CCC[C@H]5C(=O)N(C)CC(=O)N(C)[C@@H](C(C)C)C(=O)O[C@@H]4C)c3nc-2c(C(=O)N[C@@H]2C(=O)N[C@H](C(C)C)C(=O)N3CCC[C@H]3C(=O)N(C)CC(=O)N(C)[C@@H](C(C)C)C(=O)O[C@@H]2C)c(N)c1=O [DACTINOMYCIN] (I: T[dV]P[Sar][NMeV] / II: T[dV]P[Sar][NMeV]; ester I:1-I:C, II:1-II:C; linker I:N-II:N via Actinocin(9to1)) | substrate []
CISPLATIN | substrate []

The remaining lines, values ahead:

Activity | Compound
substrate [] | COc1cc([C@@H]2c3cc4c(cc3[C@@H](O[C@@H]3O[C@@H]5CO[C@@H](c6cccs6)O[C@H]5[C@H](O)[C@H]3O)[C@H]3COC(=O)[C@H]23)OCO4)cc(OC)c1O [TENIPOSIDE]
substrate [] | COc1cccc2c1C(=O)c1c(O)c3c(c(O)c1C2=O)C[C@@](O)(C(=O)CO)C[C@@H]3O[C@H]1C[C@H](N)[C@H](O)[C@H](C)O1 [DOXORUBICIN]
substrate [] | COc1cc([C@@H]2c3cc4c(cc3[C@@H](O[C@@H]3O[C@@H]5CO[C@@H](C)O[C@H]5[C@H](O)[C@H]3O)[C@H]3COC(=O)[C@H]23)OCO4)cc(OC)c1O [ETOPOSIDE]
